Test results as given in patent US10768161B2, “Method for ecological risk assessment of heavy metal in river basin sediment based on toxicity effect” (CHINESE RESEARCH ACADEMY OF ENV[…], priority 2015, dated 2020).

How the values were obtained:
aquatic organisms [1] = assay: Integration and normalization of release coefficient and HC5 to toxicity coefficient S^i; conditions: for Toxicity coefficient: Table 4; for Square root (toxicity coefficient S^i): final step of integration and normalization, Table 3
Text: (7) repeating steps (4) to (6) n times to obtain the release coefficient cs^i and toxic concentration HC5^i of each heavy metal determined in step (2), and integrating and normalizing the release coefficient cs^i and toxic concentration HC5^i of each heavy metal to obtain the toxicity coefficient S^i of the i^th heavy metal;
Preferably, the integrating and normalizing regulation described in step (7) comprises the following calculation steps:
a. calculating the reciprocal of the concentration HC5^i of the i^th heavy metal, and keeping three significant figures for each value obtained;
b. dividing each reciprocal number obtained in step a by the smallest one of them, and keeping three significant figures for each value obtained;
c. multiplying each value obtained in step b by the release coefficient cs^i of the corresponding i^th heavy metal;
d. dividing each value obtained in step c by the smallest one of them, and keeping three significant figures for each value obtained; […]

[2] = cited from earlier work; for Release coefficient: Table 3
[3] = Ecological risk assessment of heavy metals in a lake basin sediment; conditions: for Toxicity response coefficient: Tr^i=S^i*(5/BPI)^x, lake BPI=6.7; for Pollution risk index: ecological risk index Er^i=Tr^i*cf^i for the lake
Text: (8) calculating the toxicity response coefficient Tr^i of the i^th heavy metal according to the formula Tr^i=S^i*(5/BPI)^X one by one, where BPI is the biological yield index of the water body evaluated and the value of x is 1, ½ or 0;
(9) calculating the ecological risk index Er^i of the i^th heavy metal according to the formula Er^i=Tr^i*cf^i one by one, and the resulting Er^i is used to evaluate the ecological risk of a single metal to the assessed river basin: when Er^i<30, the ecological hazard of the i^th heavy metal to the assessed river basin is slight, when 30≤Er^i<60, the ecological hazard of the i^th heavy metal to the assessed river basin is medium, when 60≤Er^i<120, the ecological hazard of the i^th heavy metal to the assessed river basin is strong, when 120≤Er^i<240, the ecological hazard of the i^th heavy metal to the assessed river basin is very strong, when Er^i>240, the ecological hazard of the i^th heavy metal to the assessed river basin is extremely strong.
Preferably, the ecological assessment method described above also includes the step (10), that is using the formula RI=Σi=1^N Er^i to calculate the total ecological risk comprehensive index RI caused by multiple heavy metal pollutants in the water body and then using RI to evaluate the ecological risk of the assessed river basin: when RI<150, there is a slight ecological hazard in the river basin, when 150≤RI<300, there is a medium ecological hazard in the river basin, when 300≤RI<600, there is a very strong ecological hazard in the river basin, when RI≥600, there is an extremely strong ecological hazard in the river basin.
Preferably, the BPI described in step (8) is the bioproduction index, which is determined by the burning amount and nitrogen content of the sediment samples. BPI indicates the sensitivity of water to heavy metal pollutions, namely the effects of Eh and pH of pore water in sediments, and pH, salinity, and alkalinity of overlying water on the various heavy metals in the water.
Preferably, the value of x described in step (8) is determined by the type of heavy metals that is measured. The toxicity response coefficient of Hg decreases with the increase of BPI, and the relationship between them is linear. Therefore, when the measured metal is Hg, the value of x is 1. The toxicity response coefficient of As is independent of BPI. Therefore, when the measured metal is As, the value of x is 0. The toxicity response coefficient of other heavy metals also decreases with the increase of BPI, but it is not linear. Therefore, when the measured metal is not Hg or As, the value of x is ½.

aquatic organisms [4] = assay: Species Sensitivity Distributions (SSD) curve fitting, toxic concentration HC5; set-up: Toxic concentration: unit not given here; conditions: for Toxic concentration: HC5^i, protects 95% of aquatic organisms, Table 3
Text: (5) collecting the chronic toxicity data of the i^th heavy metal on aquatic species selected in step (1), performing curve fitting on the collected data, and selecting the curve regression equation with the highest goodness of fit, so as to obtain the best equation for the sensitivity of the i^th heavy metal;
(6) drawing a fitting curve (Species Sensitivity Distributions, SSD) according to the best fitting equation obtained in step (5), and setting the y value of this equation, that is, the cumulative probability to 0.05, and then calculating the corresponding x value, which is the toxic concentration HC5^i of the i^th heavy metal that protects 95% of aquatic organisms;
Preferably, plotting the collected concentration values of toxicity data for different species of organisms against the quantiles arranged in concentration, and selecting the curve equation to fit based on the resulting data point distribution shape. The fitting should adopt several different functions and select the optimal regression curve, so as to avoid the systematic errors introduced by improper selection of functions. When the distribution of the toxicity data points is a common S-type, the fitting curves are preferred to use the log-Normal distribution function, the log-logistic distribution function, the log-triangular distribution function, or a combination thereof. When the distribution of the toxicity data points is different from the common S-type distribution, other curves or non-parametric methods can be used to fit the data points, for example, using the Burr type III distribution function as the regression curve equation of the toxicity data of heavy metals.
Preferably, the goodness of fit described in step (5) is determined by the toxicity data points and the judgment coefficient R^2 of the resulting curve regression equation: when the judgment coefficient R^2 of the curve regression equation gets closer to 1, the goodness of the curve regression equation for the data is higher.
Preferably, the concentration HC5^i of the i^th heavy metal that protects 95% of aquatic organisms described in step (6) is the toxicity data corresponding to the cumulative probability of 5% aquatic organisms on the fitted curve.

Cryptophyta = conditions: chronic toxicity, Phytoplankton; cited from earlier work
Pyrrophyta = conditions: chronic toxicity, Phytoplankton; cited from earlier work
Bosmina = conditions: chronic toxicity, Zooplankton; cited from earlier work
Corbicula fluminea = conditions: chronic toxicity, Zoobenthos; cited from earlier work
Bellamya aeruginosa = conditions: chronic toxicity; Zoobenthos, Bellamya aeruginose; cited from earlier work
Arenaceous sanding = conditions: chronic toxicity, Zooplankton; cited from earlier work
Chironomus = conditions: chronic toxicity, Zoobenthos; cited from earlier work
Protosalanx hyalocranius = conditions: chronic toxicity, Fishes; cited from earlier work
Brachionus calyciflorus = conditions: chronic toxicity, Zooplankton; cited from earlier work
Azolla pinnata = conditions: chronic toxicity, Hydrophyte; cited from earlier work
Carp = conditions: chronic toxicity, Fishes; cited from earlier work
Wild lotus = conditions: chronic toxicity, Hydrophyte; cited from earlier work
Coilia nasus taihuensis = conditions: chronic toxicity, Fishes; cited from earlier work
Duckweed = conditions: chronic toxicity, Hydrophyte; cited from earlier work
Scenedesmus = conditions: chronic toxicity, Phytoplankton; cited from earlier work

Structure (SMILES) | Toxicity coefficient (aquatic organisms [1]) | Square root (toxicity coefficient S^i) (aquatic organisms [1]) | Release coefficient [2] | Toxicity response coefficient [3] | Pollution risk index [3] | Toxic concentration (aquatic organisms [4]) | further results
[As] [As] | 1.50 | 1.5 | 27 | 1.50 | 1.05 | 14.9 | 
[Cd] [Cd] | 28.00 | 28 | 200 | 24.19 | 18.38 | 0.3 | 
[Cr] [Cr] | 1.00 | 1 | 2 | 0.86 | 0.68 | 2.42 | Toxicity data (NOEC) (Cryptophyta): 317 µg/kg; Toxicity data (NOEC) (Pyrrophyta): 671 µg/kg; Toxicity data (NOEC) (Bosmina): 46.5 µg/kg; Toxicity data (NOEC) (Corbicula fluminea): 1.13 µg/kg; Toxicity data (NOEC) (Bellamya aeruginosa): 250 µg/kg; Toxicity data (NOEC) (Arenaceous sanding): 1500 µg/kg; Toxicity data (NOEC) (Chironomus): 20 µg/kg; Toxicity data (NOEC) (Protosalanx hyalocranius): 4405 µg/kg; Toxicity data (NOEC) (Brachionus calyciflorus): 1789 µg/kg; Toxicity data (NOEC) (Azolla pinnata): 625 µg/kg; Toxicity data (NOEC) (Carp): 23516 µg/kg; Toxicity data (NOEC) (Wild lotus): 123 µg/kg; Toxicity data (NOEC) (Coilia nasus taihuensis): 6941 µg/kg; Toxicity data (NOEC) (Duckweed): 1000 µg/kg; Toxicity data (NOEC) (Scenedesmus): 8 µg/kg; release coefficient cs^1 ([2]; from the literature): 2×10^−3; toxic concentration HC5^i that protects 95% of aquatic organisms (aquatic organisms [4]; cumulative probability 0.05 on log-logistic SSD fit of chronic toxicity data): 2.42 µg/L
[Cu] [Cu] | 17.00 | 17 | 200 | 14.69 | 26.73 | 0.89 | 
[Hg] [Hg] | 27.00 | 27 | 320 | 20.15 | 54.40 | 0.53 | ecological hazard to the lake ([3]; class by Er^i of single metal): medium (when 30≤Er^i<60, the ecological hazard of the i^th heavy metal to the assessed river basin is medium)
[Ni] [Ni] | 5.50 | 5.5 | 147 | 4.75 | 3.85 | 6.03 | 
[Pb] [Pb] |  |  | 71 |  |  |  | 
[Zn] [Zn] | 2.50 | 2.5 | 57 | 2.16 | 2.66 | 10.83 | 
